According to the supplement of paper PMC11208160:

Assay: recombinant barcode read abundance after kanamycin selection (control-corrected) (log10(CPM+1)); higher = more efficient recombination; sequences stand for … in AGTGCAGAGAAAATCGGCCAGTTTTCTCTGCCTGCAGTCCGCATGCCGT…AGATTTATGCAGCGGACTGCCTTTCTCCCAAAGTGATAAACCGGACAGTATCATGGACCGGTTTTCCCGGTAATCCGTATTTGCAAGGTTGGTTTCACT; site = the 11-nt target
Procedure, shortened: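 A vector carrying a T7-inducible recombinase and the last 73 bp of the bridge RNA received, by Gibson cloning, oligos encoding a promoter, target, barcode and the first 104 bridge RNA bases under J23119. The pooled constructs entered E. coli together with a donor plasmid by electroporation. Selection used chloramphenicol/ampicillin/kanamycin with 0.1 mM IPTG, with chloramphenicol/ampicillin LB agar as the control, each in two replicates. Recombination efficiency is the averaged, control-corrected counts-per-million of barcodes at recombinant junctions, reported as log10(CPM+1).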
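Also: IS621 recombinase and bridge RNA in Escherichia coli cells.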

Row | Sequence | recombinant barcode read abundance (log10)
1 | GGTCGAGCTTGGGTTCTAACCTGTTGCCT (site GGTCGAGCTAG) | 1.13
2 | GGTCGAGCTTGGGTTCTAACCTGTTGCCT (site GGTCGCGCTAG) | 0.0193
3 | GGTCGAGCTTGGGTTCTAACCTGTTGCCT (site GGTCGGGCTAG) | 0.146
4 | GGTCGAGCTTGGGTTCTAACCTGTTGCCT (site GGTCGTGCTAG) | 0.671
5 | GGTCGTGCTTGGGTTCTAACCTGTTGCCT (site GGTCGAGCTAG) | 0.304
6 | GGTCGTGCTTGGGTTCTAACCTGTTGCCT (site GGTCGCGCTAG) | 0
7 | GGTCGTGCTTGGGTTCTAACCTGTTGCCT (site GGTCGGGCTAG) | 0.106
8 | GGTCGTGCTTGGGTTCTAACCTGTTGCCT (site GGTCGTGCTAG) | 1.14
9 | GGTCTAACTTGGGTTCTAACCTGTTGCCT (site GGTCAAACTAG) | 0.0448
10 | GGTCTAACTTGGGTTCTAACCTGTTGCCT (site GGTCCAACTAG) | 0.631
11 | GGTCTAACTTGGGTTCTAACCTGTTGCCT (site GGTCGAACTAG) | 0.128
12 | GGTCTAACTTGGGTTCTAACCTGTTGCCT (site GGTCTAACTAG) | 0.649
13 | GGTCTGCCTTGGGTTCTAACCTGTTGCCT (site AGTCTGCCTAG) | 0.171
14 | GGTCTGCCTTGGGTTCTAACCTGTTGCCT (site CGTCTGCCTAG) | 0.252
15 | GGTCTGCCTTGGGTTCTAACCTGTTGCCT (site GGTCTGCCTAG) | 0.375
16 | GGTCTGCCTTGGGTTCTAACCTGTTGCCT (site TGTCTGCCTAG) | 0.397
17 | GGTGAGACTTGGGTTCTAACCTGTTGCCA (site AGTGGGACTTG) | 0.235
18 | GGTGAGACTTGGGTTCTAACCTGTTGCCA (site GGTGAGACTTG) | 2.14
19 | GGTGAGGCTTGGGTTCTAACCTGTTGCAT (site GGTGAGGCTAT) | 2.31
20 | GGTGAGGCTTGGGTTCTAACCTGTTGCAT (site TAACCTACTTA) | 0.214
21 | GGTGCATCTTGGGTTCTAACCTGTTGCTT (site ATATGTCCTTT) | 0.0325
22 | GGTGCATCTTGGGTTCTAACCTGTTGCTT (site GGTGCATCTAA) | 0.0847

Row | Sequence | recombinant barcode read abundance (log10)
23 | GGTGCGTCTTGGGTTCTAACCTGTTGCCT (site AGTGCGTCTAG) | 0.246
24 | GGTGCGTCTTGGGTTCTAACCTGTTGCCT (site CGTGCGTCTAG) | 0.132
25 | GGTGCGTCTTGGGTTCTAACCTGTTGCCT (site GGTGCGTCTAG) | 1.57
26 | GGTGCGTCTTGGGTTCTAACCTGTTGCCT (site TGTGCGTCTAG) | 0.119
27 | GGTGCTCCTTGGGTTCTAACCTGTTGCAC (site GGTGCTCCTAT) | 0.085
28 | GGTGCTCCTTGGGTTCTAACCTGTTGCAC (site GGTGCTCCTCT) | 0.04
29 | GGTGCTCCTTGGGTTCTAACCTGTTGCAC (site GGTGCTCCTGT) | 0.684
30 | GGTGCTCCTTGGGTTCTAACCTGTTGCAC (site GGTGCTCCTTT) | 0.216
31 | GGTGGCCCTTGGGTTCTAACCTGTTGCCT (site GATGGCCCTAG) | 0.108
32 | GGTGGCCCTTGGGTTCTAACCTGTTGCCT (site GCTGGCCCTAG) | 0.22
33 | GGTGGCCCTTGGGTTCTAACCTGTTGCCT (site GGTGGCCCTAG) | 1.08
34 | GGTGGCCCTTGGGTTCTAACCTGTTGCCT (site GTTGGCCCTAG) | 0.296
35 | GGTGGGGCTTGGGTTCTAACCTGTTGCTG (site GGTGGGGCTCA) | 2.24
36 | GGTGGGGCTTGGGTTCTAACCTGTTGCTG (site GGTTGAGCTCA) | 0.536
37 | GGTGGTCCTTGGGTTCTAACCTGTTGCCT (site GGTGGTCCTAG) | 1.36
38 | GGTGGTCCTTGGGTTCTAACCTGTTGCCT (site GGTTGTCCTAG) | 0.178
39 | GGTTACCCTTGGGTTCTAACCTGTTGCGG (site GGTAACCCTCC) | 0.716
40 | GGTTACCCTTGGGTTCTAACCTGTTGCGG (site GGTCACCCTCC) | 1.62
41 | GGTTACCCTTGGGTTCTAACCTGTTGCGG (site GGTGACCCTCC) | 0.115
42 | GGTTACCCTTGGGTTCTAACCTGTTGCGG (site GGTTACCCTCC) | 2.08
43 | GGTTAGTCTTGGGTTCTAACCTGTTGCCG (site ACGGCTACTAA) | 0.147
44 | GGTTAGTCTTGGGTTCTAACCTGTTGCCG (site GGTTAGTCTCG) | 0.363

Row | Sequence | recombinant barcode read abundance (log10)
45 | GGTTGAGCTTGGGTTCTAACCTGTTGCTG (site GGTGGGGCTCA) | 0.0323
46 | GGTTGAGCTTGGGTTCTAACCTGTTGCTG (site GGTTGAGCTCA) | 0.642
47 | GGTTGGCCTTGGGTTCTAACCTGTTGCGG (site GGTTGACCTCC) | 0.257
48 | GGTTGGCCTTGGGTTCTAACCTGTTGCGG (site GGTTGCCCTCC) | 0.0622
49 | GGTTGGCCTTGGGTTCTAACCTGTTGCGG (site GGTTGGCCTCC) | 0.624
50 | GGTTGGCCTTGGGTTCTAACCTGTTGCGG (site GGTTGTCCTCC) | 0.15
51 | GGTTGGGCTTGGGTTCTAACCTGTTGCAG (site GGCTGGGCTCG) | 0.0851
52 | GGTTGGGCTTGGGTTCTAACCTGTTGCAG (site GGTTGGGCTCT) | 1.46
53 | GTAACCTCTTGGGTTCTAACCTGTTGCCT (site GTAACCTCTAG) | 1.92
54 | GTAACCTCTTGGGTTCTAACCTGTTGCCT (site GTAACCTCTCG) | 1.15
55 | GTAACCTCTTGGGTTCTAACCTGTTGCCT (site GTAACCTCTGG) | 0.0952
56 | GTAACCTCTTGGGTTCTAACCTGTTGCCT (site GTAACCTCTTG) | 0.0654
57 | GTAAGAACTTGGGTTCTAACCTGTTGCAG (site GTAAGAACTCT) | 1.78
58 | GTAAGAACTTGGGTTCTAACCTGTTGCAG (site GTAAGTCCTCT) | 0.544
59 | GTAAGGACTTGGGTTCTAACCTGTTGCGG (site CAGTCAGCTAG) | 0.115
60 | GTAAGGACTTGGGTTCTAACCTGTTGCGG (site GTAAGGACTCC) | 2.25
61 | GTAAGTTCTTGGGTTCTAACCTGTTGCCT (site GAAAGTTCTAG) | 0.049
62 | GTAAGTTCTTGGGTTCTAACCTGTTGCCT (site GCAAGTTCTAG) | 0.258
63 | GTAAGTTCTTGGGTTCTAACCTGTTGCCT (site GGAAGTTCTAG) | 0.0929
64 | GTAAGTTCTTGGGTTCTAACCTGTTGCCT (site GTAAGTTCTAG) | 1.11
65 | GTAATAGCTTGGGTTCTAACCTGTTGCAT (site ATAATAGCTAT) | 0.695
66 | GTAATAGCTTGGGTTCTAACCTGTTGCAT (site GTAATAGCTAT) | 2

Row | Sequence | recombinant barcode read abundance (log10)
67 | GTAATCCCTTGGGTTCTAACCTGTTGCCG (site GTAATCCCTCG) | 1.76
68 | GTAATCCCTTGGGTTCTAACCTGTTGCCG (site GTAATCCCTTG) | 0.572
69 | GTAATTGCTTGGGTTCTAACCTGTTGCCT (site GTAAATGCTAG) | 0.184
70 | GTAATTGCTTGGGTTCTAACCTGTTGCCT (site GTAACTGCTAG) | 0.519
71 | GTAATTGCTTGGGTTCTAACCTGTTGCCT (site GTAAGTGCTAG) | 0.0962
72 | GTAATTGCTTGGGTTCTAACCTGTTGCCT (site GTAATTGCTAG) | 0.918
73 | GTACAATCTTGGGTTCTAACCTGTTGCAG (site CATAGTCCTTG) | 0
74 | GTACAATCTTGGGTTCTAACCTGTTGCAG (site GTACAATCTCT) | 0.632
75 | GTACGACCTTGGGTTCTAACCTGTTGCAC (site AACAAGACTAG) | 0.189
76 | GTACGACCTTGGGTTCTAACCTGTTGCAC (site GTACGACCTGT) | 1.91
77 | GTACGTACTTGGGTTCTAACCTGTTGCCT (site ATACGTACTAG) | 0.0704
78 | GTACGTACTTGGGTTCTAACCTGTTGCCT (site CTACGTACTAG) | 0.283
79 | GTACGTACTTGGGTTCTAACCTGTTGCCT (site GTACGTACTAG) | 0.586
80 | GTACGTACTTGGGTTCTAACCTGTTGCCT (site TTACGTACTAG) | 0.777
81 | GTACGTCCTTGGGTTCTAACCTGTTGCGT (site GTACGTCCTAA) | 0.0527
82 | GTACGTCCTTGGGTTCTAACCTGTTGCGT (site GTACGTCCTAC) | 2.36
83 | GTACGTCCTTGGGTTCTAACCTGTTGCGT (site GTACGTCCTAG) | 0.0549
84 | GTACGTCCTTGGGTTCTAACCTGTTGCGT (site GTACGTCCTAT) | 0.764
85 | GTAGACCCTTGGGTTCTAACCTGTTGCCG (site GTAGACCCTCG) | 2.32
86 | GTAGACCCTTGGGTTCTAACCTGTTGCCG (site GTTGACCCTAG) | 0.476
